How the values were obtained:
[1] = tested on: cyclophosphamide (CY) induced diabetes; test: Cyclophosphamide-induced diabetes mouse model; type: in vivo, NOD mice; settings: 25 μg intraperitoneally on days 0, 2, 4, 6, 8; diabetic = blood glucose above 250 mg/dL; 100% of DMSO controls diabetic
Experimental: FIG. 8 presents a graph illustrating the percent of animals that developed diabetes in a cyclophosphamide-induced diabetes mouse model. Groups of animals received DMSO only, α-GalCerBf, or KRN7000. Number of animals is represented by n. Mice were considered diabetic when blood glucose was above 250 mg/dL. Blood glucose levels were measured at the time point shown. Data are representative of three independent experiments. KRN7000 prevents cyclophosphamide (CY) induced diabetes in a Non-Obese Diabetic (NOD) mouse model (see, e.g., Sharif et al., Nat. Med. 7:1057-62 (2001)). Prevention of diabetes in this model is believed to be associated with suppression of T and B cell responses to islet antigens as well as a polarization towards TH2-like responses (see Sharif, supra). This example describes the effect of α-GalCerBf in the CY induced diabetes mouse model. Groups of twelve-week old NOD female mice were given 300 mg/kg cyclophosphamide intraperitoneally on day 0. Groups of mice received DMSO (n=4), or 25 μg α-GalCerBf (n=7) or 5 μg KRN7000 (n=3) diluted in DMSO intraperitoneally on days 0, 2, 4, 6, and 8. Diabetes progression was monitored by measuring blood glucose at each time point (see FIG. 8). […] Kaplan-Meier survival curves were determined by a log-rank test using Prism software.

liver NKT cells = test: In vivo activation of NKT cells by transfer of sphingolipid-pulsed BMDCs; parameters: species or system C57BL/6 mice; settings: without re-stimulation; BMDCs pulsed with α-GalCerBf
Experimental: FIGS. 7A-7F illustrate that α-GalCerBf activates NKT cells in vivo. Bone marrow-derived dendritic cells (BMDCs) were pulsed in vitro with LPS only or LPS+α-GalCerBf for 24 hr. Then 0.4×10^6 cells were treated with control Ig or anti-CD1d blocking antibody and then transferred to WT mice. Liver mononuclear cells were analyzed 16-18 hr later. Data shown were pooled from three independent experiments. FIGS. 7A-7C: Expression of CD25 and CD69 on gated CD3^+tetramer^+ cells. Representative flow cytometry plots and pooled data showing fold change of CD25 and CD69 surface expression compared to NKT cells isolated from mice transferred with LPS-pulsed BMDCs. FIGS. 7D and 7E provide representative flow cytometry plots and pooled data, respectively, of intracellular IFN-γ expression on gated CD3^+ tetramer^+ cells. FIG. 7F presents serum IFN-γ levels. […]
Mice were sacrificed 16-18 hr after transfer of 0.4×10^6 mature CD86^hiMHCII^hi BMDCs. […] All isolations were performed in the presence of brefeldin A. After cell surface staining, cells were fixed in Cytofix/Cytoperm (BD Biosciences) according to the manufacturer's instructions and stained for intracellular cytokines Serum IFN-γ was measured by ELISA. […]
As described herein, because α-GalCerBf is an agonist of NKT cell hybridomas and freshly isolated NKT cells in culture, the capability of α-GalCerBf to activate NKT cells in vivo was determined. […]

[2] = tested on: Peripheral blood mononuclear cells (PBMCs), CD3+Vα24+ NKT cells; test: In vitro expansion of CD3+Vα24+ NKT cells from human PBMCs; type: cell-based; settings: 13 days; 0.1 μg/ml KRN7000, 1 μg/ml α-GalCerBf, 1 μg/ml ceramideBf
Experimental: FIGS. 6A and 6B illustrate that α-GalCerBf binds human CD1d and activates human NKT cells in vitro. FIG. 6A: PBMCs were cultured for 13 days with 0.1 μg/mlKRN7000, 1 μg/ml α-GalCerBf, or 1 μg/ml ceramideBf. Dot plots show CD3^+Vα24^+NKT cells pre- and post-expansion. The data shown are representative of at least two individual experiments performed with six individual donors. FIG. 6B: Human NKT cells were purified after two rounds of expansion with 1 μg/ml α-GalCerBf and restimulated with 10 μg/ml α-GalCerBf in the presence or absence of control Ig or anti-Cd1d blocking antibodies. IFN-γ secretion was measured in supernatants 40-48 hours later. Data are representative of two independent experiments.
The capability of α-GalCerBf to stimulate freshly isolated NKT cells was determined. A first experiment was performed to determine whether Vα24^+ cells could be expanded in vitro with α-GalCerBf as previously described for KRN7000 (see, e.g., Rogers et al., J. Immunol. Meth. 285:197-214 (2004)). Peripheral blood mononuclear cells (PBMCs) were cultured with 0.1 μg/ml KRN7000, 1 μg/ml α-GalCerBf, or 1 μg/ml ceramideBf for 13 days. The presence of CD3 Vα24^+ cells was then assessed by flow cytometry. At least two individual experiments performed with six individual donors. […] IFN-γ secretion was measured in supernatants 40-48 hours later.

Row | SMILES | Mice in which diabetes development was prevented [1] | Liver NKT cells expressing IFN-γ (liver NKT cells) | Expansion of a population of CD3+Vα24+ cells [2]
1 | CC(C)CCCCCCCCCCC[C@@H](O)CC(=O)N[C@@H](CO[C@H]1OC(CO)[C@H](O)[C@H](O)C1O)[C@H](O)CCCCCCCCCCCC(C)C (stereo partly drawn) [α-GalCerBf] | more than 40% | 15% | –
2 | CC(C)CCCCCCCCCCC[C@@H](O)CC(=O)N[C@@H](CO)[C@H](O)CCCCCCCCCCCC(C)C [ceramideBf] | – | – | did not show an expansion
